Results reported in patent US5225438A, “Aryl derivatives” (Imperial Chemical Industries PLC, priority 1990, dated 1993).

Experiments:
[1] = molecular target: T1, 5-LO (Homo sapiens, UniProt P09917); experiment: Test a) in vitro human blood challenged with calcium ionophore A23187, LTB4 radioimmunoassay; assay type: cell-based; conditions: heparinised human blood
T1 construct: incubating a test compound with heparinised human blood, prior to challenge with the calcium ionophore A23187; endogenous in cells; host or cells: blood cells in heparinised human whole blood
T1 sequence (P09917 1-674): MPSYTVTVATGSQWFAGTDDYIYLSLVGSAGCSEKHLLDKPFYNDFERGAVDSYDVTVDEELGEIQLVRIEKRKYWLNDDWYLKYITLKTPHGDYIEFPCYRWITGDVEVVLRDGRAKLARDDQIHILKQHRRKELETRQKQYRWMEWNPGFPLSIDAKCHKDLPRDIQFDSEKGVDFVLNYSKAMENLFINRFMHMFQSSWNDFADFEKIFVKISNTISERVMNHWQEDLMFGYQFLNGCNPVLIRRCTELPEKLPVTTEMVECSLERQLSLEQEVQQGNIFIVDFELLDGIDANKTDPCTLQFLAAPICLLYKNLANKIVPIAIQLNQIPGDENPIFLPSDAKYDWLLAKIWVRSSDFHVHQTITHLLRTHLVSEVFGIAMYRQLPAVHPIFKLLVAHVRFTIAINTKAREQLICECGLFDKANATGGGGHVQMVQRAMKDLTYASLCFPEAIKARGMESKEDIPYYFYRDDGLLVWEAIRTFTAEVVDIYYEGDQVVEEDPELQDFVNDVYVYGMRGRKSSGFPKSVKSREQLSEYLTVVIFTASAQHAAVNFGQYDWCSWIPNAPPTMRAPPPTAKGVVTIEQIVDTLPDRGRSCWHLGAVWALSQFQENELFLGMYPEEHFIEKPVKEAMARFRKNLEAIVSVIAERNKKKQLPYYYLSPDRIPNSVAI
Description: a) An in vitro assay system involving incubating a test compound with heparinised human blood, prior to challenge with the calcium ionophore A23187 and then indirectly measuring the inhibitory effects on 5-LO by assaying the amount of LTB4 using specific radioimmunoassays described by Carey and Forder (Prostaglandins, Leukotrienes Med., 1986, 22, 57; Prostaglandins, 1984, 28, 666; Brit. J. Pharmacol., 1985, 84, 34P) which involves the use of a protein-LTB4 conjugate produced using the procedure of Young et alia (Prostaglandins, 1983, 26(4), 605-613). The effects of a test compound on the enzyme cyclooxygenase (which is involved in the alternative metabolic pathway for arachidonic acid and gives rise to prostaglandins, thromboxanes and related metabolites) may be measured at the same time using the specific radioimmunoassay for thromboxane B2 (TxB2) described by Carey and Forder (see above). This test provides an indication of the effects of a test compound against 5-LO and also cyclooxygenase in the presence of blood cells and proteins. It permits the selectivity of the inhibitory effect on 5-LO or cyclooxygenase to be assessed.

[2] = molecular target: T2, 5-LO (Rattus norvegicus, UniProt P12527); experiment: Test c) in vivo zymosan-induced liberation of LTB4 within an air pouch of male rats; conditions: 3 h; test c), oral
T2 construct: liberation of LTB4 induced by zymosan within an air pouch generated within the subcutaneous tissue of the back of male rats; from tissue; host or cells: live male rats, zymosan-inflamed subcutaneous air pouch (endogenous enzyme)
T2 sequence (P12527 1-673): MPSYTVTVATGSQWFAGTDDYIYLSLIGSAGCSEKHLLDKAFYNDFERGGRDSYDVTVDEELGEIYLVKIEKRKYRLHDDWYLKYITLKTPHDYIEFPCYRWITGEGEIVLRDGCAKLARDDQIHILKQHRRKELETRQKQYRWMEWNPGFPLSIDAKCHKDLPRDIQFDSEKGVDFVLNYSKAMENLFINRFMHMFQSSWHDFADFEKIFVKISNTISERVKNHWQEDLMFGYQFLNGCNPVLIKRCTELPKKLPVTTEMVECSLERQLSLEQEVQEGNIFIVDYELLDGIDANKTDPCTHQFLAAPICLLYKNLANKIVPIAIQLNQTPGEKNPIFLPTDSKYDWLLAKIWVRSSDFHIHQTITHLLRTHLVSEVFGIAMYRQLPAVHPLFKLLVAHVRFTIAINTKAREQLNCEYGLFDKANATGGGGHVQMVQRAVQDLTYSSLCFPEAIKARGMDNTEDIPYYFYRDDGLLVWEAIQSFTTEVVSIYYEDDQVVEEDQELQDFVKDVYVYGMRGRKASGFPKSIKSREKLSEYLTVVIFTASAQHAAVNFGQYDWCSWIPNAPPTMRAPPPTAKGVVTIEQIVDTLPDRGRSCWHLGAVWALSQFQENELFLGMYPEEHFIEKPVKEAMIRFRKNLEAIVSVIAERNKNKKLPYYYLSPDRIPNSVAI
Description: c) An in vivo system involving measuring the effects of a test compound administered orally against the liberation of LTB4 induced by zymosan within an air pouch generated within the subcutaneous tissue of the back of male rats. The rats are anaesthetised and air pouches are formed by the injection of sterile air (20 ml). A further injection of air (10 ml) is similarly given after 3 days. At 6 days after the initial air injection the test compound is administered (usually orally as the suspension produced when a solution of the test compound in dimethylsulphoxide is added to hydroxypropylmethylcellulose), followed by the intrapouch injection of zymosan (1 ml of a 1% suspension in physiological saline). After 3 hours the rats are killed, the air pouches are lavaged with physiological saline, and the specific radioimmunoassay described above is used to assay LTB4 in the washings. This test provides an indication of inhibitory effects against 5-LO in an inflammatory milieu.

IC50 [1] [nM] | ED50 [2] [mg/kg] | Compound
40 | 2 | COC1(c2cccc(Sc3ccc(Cc4ccc(F)cc4)cc3)c2)CCOCC1 [4-[3-(4-(4-fluorobenzyl)phenylthio)phenyl]-4-methoxytetrahydropyran]
140 | 1 | COC1(c2cc(F)cc(Sc3ccc(C(F)(F)c4ccc(F)cc4)cc3)c2)CCOCC1 [4-[5-fluoro-3-(4-(4-fluoro-alpha,alpha-difluorobenzyl)phenylthio)phenyl]-4-methoxytetrahydropyran]
